For assay [1], the system named is Aβ 40 in conditioned medium of cells stably expressing Amyloid Precursor Protein (APP). Nature of the assay: In vitro BACE cell-based assay (Aβ 40 sandwich ELISA). The conditions noted are these: Homo sapiens, HEK293. In a few lines:
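Aβ40 in conditioned medium measured by pAb40/biotin-6E10 sandwich ELISA with time-resolved europium fluorescence, after 24 h exposure of stable APP cells to compounds (10-point series starting 100 μM or 10 μM; 0.1% DMSO). IC50 fitted from percent of control against concentration.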
(In general: An ELISA detects its analyte on a solid surface through an enzyme-linked reagent.)

Assay [2] has as its target Beta Secretase enzyme (BACE) (Homo sapiens, UniProt P56817). Nature of the assay: In vitro enzymatic BACE FRET assay. It counts as biochemical. The conditions noted are these: read-out: BACE1 FRET assay IC50. An outline of the steps: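 Cleavage of a quenched 50 nM FRET peptide substrate, read as fluorescence (excitation 488 nm, […]) after 1 h and Tris quench to neutrality. Buffer: 0.05 M acetate pH 4.2 with 10% DMSO and 100 uM genapol. Inhibitor dilutions were pre-incubated 1 h with 0.2 nM enzyme.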

A further assay has as its target Cathepsin D (Cat D) (Homo sapiens, UniProt P07339). Description: In vitro enzymatic Cathepsin D (Cat D) FRET assay. It counts as biochemical. An outline of the steps:
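FRET peptide substrate (20 nM) is cleaved by CHO-derived recombinant enzyme (9 nM) for 1 h after a 1 h inhibitor pre-incubation, at pH 3.5 in citrate buffer with 5 mM CHAPS and 10% DMSO. Tris addition ends the reaction; fluorescence measured at 500 nm excitation, 580 nm emission.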

Setting [3] is: text summary referring to data in Table 2.
The mark [4] stands for this setting: average IC50, HEK cell assay, Aβ 40 readout.
Setting [5] is: average IC50, in vitro enzymatic BACE FRET assay.
Where [6] appears, read: Cathepsin D FRET assay, read-out: CatD IC50.

For 17 compounds, IC50 results are on record in patent US9309263B2, “Fused multi-cyclic sulfone compounds as inhibitors of beta-secretase and methods of use thereof” (AMGEN INC., priority 2013, dated 2016).

Like-named read-outs stand apart in the source and are kept apart here.

Sequence of Beta Secretase enzyme (BACE) (P56817 46-501): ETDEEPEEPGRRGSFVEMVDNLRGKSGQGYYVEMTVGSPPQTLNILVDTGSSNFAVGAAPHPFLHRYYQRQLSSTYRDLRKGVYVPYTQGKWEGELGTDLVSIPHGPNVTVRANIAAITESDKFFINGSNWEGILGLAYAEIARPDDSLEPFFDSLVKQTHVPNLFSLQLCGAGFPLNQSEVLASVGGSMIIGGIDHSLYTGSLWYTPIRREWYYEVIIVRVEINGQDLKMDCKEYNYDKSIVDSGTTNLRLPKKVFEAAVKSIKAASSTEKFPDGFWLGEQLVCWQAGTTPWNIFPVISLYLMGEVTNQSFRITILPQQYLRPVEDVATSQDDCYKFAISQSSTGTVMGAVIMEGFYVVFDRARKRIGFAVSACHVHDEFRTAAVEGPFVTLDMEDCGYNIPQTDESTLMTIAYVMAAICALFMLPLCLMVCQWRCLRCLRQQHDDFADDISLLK
Sequence of Cathepsin D (Cat D) (P07339 65-412, species assumed): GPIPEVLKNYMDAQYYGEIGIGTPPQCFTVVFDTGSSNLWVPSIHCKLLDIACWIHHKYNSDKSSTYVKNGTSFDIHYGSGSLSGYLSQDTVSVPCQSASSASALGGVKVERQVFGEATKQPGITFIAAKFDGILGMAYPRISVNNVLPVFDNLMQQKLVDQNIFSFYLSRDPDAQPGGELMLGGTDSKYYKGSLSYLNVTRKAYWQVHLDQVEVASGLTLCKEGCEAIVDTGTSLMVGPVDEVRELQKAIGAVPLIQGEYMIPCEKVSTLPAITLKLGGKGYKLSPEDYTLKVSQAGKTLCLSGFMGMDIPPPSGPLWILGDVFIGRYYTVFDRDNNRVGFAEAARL

In the case of `Cc1cnc(COc2cnc(C(=O)Nc3ccc4c(c3)[C@@]3(C)N=C(N)C(C)(C)S(=O)(=O)[C@@H]3C[C@H](C)O4)cn2)o1` [Example 80, N-((4aR,6S,11bR)-2-amino-3,3,6,11b-tetramethyl-4,4-dioxido-4a,5,6,11b-tetrahydro-3H-[1]benzoxepino[4,5-b][1,4]thiazin-10-yl)-5-((5-methyl-1,3-oxazol-2-yl)methoxy)-2-pyrazinecarboxamide], the IC50 (commonly the concentration that gives 50% inhibition) in assay [1] (HEK cell, average IC50) was 0.001 µM; in assay [2] (average IC50), 0.004 µM; at Cathepsin D (Cat D) (read-out: CatD IC50), 1490 µM; on Cathepsin D (Cat D) (setting [3]), > 1200 µM.
In the case of `C[C@H]1C[C@@H]2[C@](C)(N=C(N)C(C)(C)S2(=O)=O)c2cc(NC(=O)c3cnc(OCc4cnn(C)c4)cn3)ccc2O1` [Example 81, N-((4aR,6S,11bR)-2-amino-3,3,6,11b-tetramethyl-4,4-dioxido-4a,5,6,11b-tetrahydro-3H-[1]benzoxepino[4,5-b][1,4]thiazin-10-yl)-5-((1-methyl-1H-pyrazol-4-yl)methoxy)-2-pyrazinecarboxamide], the IC50 in assay [1] (setting [4]) was 0.072 µM; in assay [2] (setting [5]) it was 0.016 µM; on Cathepsin D (Cat D) (setting [6]), 1310 µM; at Cathepsin D (Cat D) (setting [3]) it was > 1200 µM.
Consider `C[C@H]1C[C@@H]2[C@](C)(N=C(N)C(C)(C)S2(=O)=O)c2cc(NC(=O)c3cnc(OCc4ccn(C)n4)cn3)ccc2O1` [Example 82, N-((4aR,6S,11bR)-2-amino-3,3,6,11b-tetramethyl-4,4-dioxido-4a,5,6,11b-tetrahydro-3H-[1]benzoxepino[4,5-b][1,4]thiazin-10-yl)-5-((1-methyl-1H-pyrazol-3-yl)methoxy)-2-pyrazinecarboxamide], for which the IC50 in assay [1] (setting [4]) was found to be 0.009 µM; in assay [2] (setting [5]), 0.005 µM; at Cathepsin D (Cat D) (setting [6]), 583 µM.
For the compound `Cc1cc(C#CC2CC2)cnc1C(=O)Nc1ccc2c(c1)[C@@]1(C)N=C(N)C(C)(C)S(=O)(=O)[C@@H]1CCO2` [Example 83, N-((4aR,11bR)-2-amino-3,3,11b-trimethyl-4,4-dioxido-4a,5,6,11b-tetrahydro-3H-[1]benzoxepino[4,5-b][1,4]thiazin-10-yl)-5-(cyclopropylethynyl)-3-methyl-2-pyridinecarboxamide], the IC50 in assay [1] (setting [4]) was 0.009 µM; in assay [2] (setting [5]), 0.006 µM; at Cathepsin D (Cat D) (setting [6]) it was 954 µM; on Cathepsin D (Cat D) (setting [3]), > 800 µM.
Consider `Cc1cc(Cl)cnc1C(=O)Nc1ccc2c(c1)[C@@]1(C)N=C(N)C(C)(C)S(=O)(=O)[C@@]1(F)CCO2` [Example 87, N-((4aS,11bR)-2-amino-4a-fluoro-3,3,11b-trimethyl-4,4-dioxido-4a,5,6,11b-tetrahydro-3H-[1]benzoxepino[4,5-b][1,4]thiazin-10-yl)-5-chloro-3-methyl-2-pyridinecarboxamide], for which the IC50 was determined as 0.008 µM in assay [1] (setting [4]), 0.002 µM in assay [2] (setting [5]) and 279 µM on Cathepsin D (Cat D) (setting [6]).
On to `CC1(C)C(N)=N[C@]2(C)c3cc(NC(=O)c4cnc(OCC5CC5)cn4)ccc3OCC[C@H]2S1(=O)=O` [Example 88, N-((4aR,11bR)-2-amino-3,3,11b-trimethyl-4,4-dioxido-4a,5,6,11b-tetrahydro-3H-benzo[6,7]oxepino[4,5-b][1,4]thiazin-10-yl)-5-(cyclopropylmethoxy)pyrazine-2-carboxamide], for which the concentration for half-maximal inhibition (IC50) was found to be 0.044 µM in assay [1] (setting [4]), 0.01 µM in assay [2] (setting [5]) and 745 µM on Cathepsin D (Cat D) (setting [6]).
On the same counts, the results for `COc1cnc(C(=O)Nc2ccc3c(c2)[C@@]2(C)N=C(N)C(C)(C)S(=O)(=O)[C@@]2(F)CCO3)cn1` [Example 89, N-((4aS,11bR)-2-amino-4a-fluoro-3,3,11b-trimethyl-4,4-dioxido-4a,5,6,11b-tetrahydro-3H-[1]benzoxepino[4,5-b][1,4]thiazin-10-yl)-5-methoxy-2-pyrazinecarboxamide] are 0.05 µM, 0.028 µM and 400 µM.
On the same counts, the results for `CC1(C)C(N)=N[C@]2(C)c3cc(NC(=O)c4cnc(OCC(F)F)cn4)ccc3OCC[C@H]2S1(=O)=O` [Example 90, N-((4aR,11bR)-2-amino-3,3,11b-trimethyl-4,4-dioxido-4a,5,6,11b-tetrahydro-3H-benzo[6,7]oxepino[4,5-b][1,4]thiazin-10-yl)-5-(2,2-difluoroethoxy)pyrazine-2-carboxamide] are 0.011 µM, 0.007 µM and 919 µM.
Turning to `Cc1nc(OCC(F)F)cnc1C(=O)Nc1ccc2c(c1)[C@@]1(C)N=C(N)C(C)(C)S(=O)(=O)[C@@H]1CCO2` [Example 91, N-((4aR,11bR)-2-amino-3,3,11b-trimethyl-4,4-dioxido-4a,5,6,11b-tetrahydro-3H-[1]benzoxepino[4,5-b][1,4]thiazin-10-yl)-5-(2,2-difluoroethoxy)-3-methyl-2-pyrazinecarboxamide], the 50% inhibitory concentration (IC50) in assay [1] (setting [4]) is 0.027 µM; in assay [2] (setting [5]), 0.019 µM; on Cathepsin D (Cat D) (setting [6]) it was 1870 µM; at Cathepsin D (Cat D) (setting [3]), > 1200 µM.
Taken in the same sequence, the figures for `COCc1ccc(C(=O)Nc2ccc3c(c2)[C@@]2(C)N=C(N)C(C)(C)S(=O)(=O)[C@@H]2CCO3)nc1` [Example 92, N-((4aR,11bR)-2-amino-3,3,11b-trimethyl-4,4-dioxido-4a,5,6,11b-tetrahydro-3H-[1]benzoxepino[4,5-b][1,4]thiazin-10-yl)-5-(methoxymethyl)-2-pyridinecarboxamide] were 0.026 µM, 0.122 µM, 3050 µM and > 1200 µM.
As for `Cc1cc(C(F)(F)F)cnc1C(=O)Nc1ccc2c(c1)[C@@]1(C)N=C(N)C(C)(C)S(=O)(=O)[C@]1(F)CCO2` [Example 93, N-((4aR,11bR)-2-amino-4a-fluoro-3,3,11b-trimethyl-4,4-dioxido-4a,5,6,11b-tetrahydro-3H-[1]benzoxepino[4,5-b][1,4]thiazin-10-yl)-3-methyl-5-(trifluoromethyl)-2-pyridinecarboxamide], the concentration for half-maximal inhibition (IC50) turned out to be 0.054 µM in assay [1] (setting [4]), 0.011 µM in assay [2] (setting [5]) and 513 µM on Cathepsin D (Cat D) (setting [6]).
Taken in the same sequence, the figures for `Cc1cc(OC(F)F)cnc1C(=O)Nc1ccc2c(c1)[C@@]1(C)N=C(N)C(C)(C)S(=O)(=O)[C@]1(F)CCO2` [Example 95, N-((4aR,11bR)-2-amino-4a-fluoro-3,3,11b-trimethyl-4,4-dioxido-4a,5,6,11b-tetrahydro-3H-[1]benzoxepino[4,5-b][1,4]thiazin-10-yl)-5-(difluoromethoxy)-3-methyl-2-pyridinecarboxamide] were 0.061 µM, 0.014 µM and 248 µM.
On the same counts, the results for `CC1(C)C(N)=N[C@]2(C)c3cc(NC(=O)c4ccc(OCC(F)F)cn4)ccc3OCC[C@H]2S1(=O)=O` [Example 96, N-((4aR,11bR)-2-amino-3,3,11b-trimethyl-4,4-dioxido-4a,5,6,11b-tetrahydro-3H-[1]benzoxepino[4,5-b][1,4]thiazin-10-yl)-5-(2,2-difluoroethoxy)-2-pyridinecarboxamide] are 0.098 µM, 0.033 µM and 1180 µM.
On the same counts, the results for `CC1(C)C(N)=N[C@]2(C)c3cc(NC(=O)c4ccc(OCC(F)(F)F)cn4)ccc3OCC[C@H]2S1(=O)=O` [Example 97, N-((4aR,11bR)-2-amino-3,3,11b-trimethyl-4,4-dioxido-4a,5,6,11b-tetrahydro-3H-[1]benzoxepino[4,5-b][1,4]thiazin-10-yl)-5-(2,2,2-trifluoroethoxy)-2-pyridinecarboxamide] are 0.069 µM, 0.022 µM and 974 µM.
For the compound `CC#CCOc1cnc(C(=O)Nc2ccc3c(c2)[C@@]2(C)N=C(N)C(C)(C)S(=O)(=O)[C@@H]2CC(C)(C)O3)cn1` [Example 98, N-((4aR,11bR)-2-amino-3,3,6,6,11b-pentamethyl-4,4-dioxido-4a,5,6,11b-tetrahydro-3H-[1]benzoxepino[4,5-b][1,4]thiazin-10-yl)-5-(2-butyn-1-yloxy)-2-pyrazinecarboxamide], the IC50 was 0.0005 µM in assay [1] (setting [4]), 0.002 µM in assay [2] (setting [5]) and 318 µM on Cathepsin D (Cat D) (setting [6]).
Taken in the same sequence, the figures for `Cc1cc(C#N)cnc1C(=O)Nc1ccc2c(c1)[C@@]1(C)N=C(N)C(C)(C)S(=O)(=O)[C@@H]1CC(C)(C)O2` [Example 99, N-((4aR,11bR)-2-amino-3,3,6,6,11b-pentamethyl-4,4-dioxido-4a,5,6,11b-tetrahydro-3H-[1]benzoxepino[4,5-b][1,4]thiazin-10-yl)-5-cyano-3-methyl-2-pyridinecarboxamide] were 0.002 µM, 0.008 µM and > 400 µM.
Take `COc1cnc(C(=O)Nc2ccc3c(c2)[C@@]2(C)N=C(N)C(C)(C)S(=O)(=O)[C@@H]2CC(C)(C)O3)cn1` [Example 100, N-((4aR,11bR)-2-amino-3,3,6,6,11b-pentamethyl-4,4-dioxido-4a,5,6,11b-tetrahydro-3H-[1]benzoxepino[4,5-b][1,4]thiazin-10-yl)-5-methoxy-2-pyrazinecarboxamide]: the IC50 in assay [1] (setting [4]) is 0.012 µM; in assay [2] (setting [5]), 0.025 µM; on Cathepsin D (Cat D) (setting [6]) it was 1340 µM; at Cathepsin D (Cat D) (setting [3]) it was > 1200 µM.
